Reference: US7956082B2, “Indole derivative having PGD2 receptor antagonist activity” (Shionogi & Co., Ltd, priority 2005, dated 2011)
Structures can show the parent of a compound that is named as a salt.

Tests used:
DP receptor [1] = biological target: T1, DP receptor (Homo sapiens, UniProt Q13258); test: cAMP assay with washed platelets (DP inhibitory activity in vitro); type: cell-based; settings: 100 nM PGD2, cAMP by HTRF, read-out: IC50 (50% DP-inhibitory concentration in the cAMP assay)
T1 construct: endogenous in cells; host or cells: washed platelets from peripheral blood of a healthy volunteer (whole platelets in A1, platelet membrane fraction in A2)
T1 sequence (Q13258 1-359): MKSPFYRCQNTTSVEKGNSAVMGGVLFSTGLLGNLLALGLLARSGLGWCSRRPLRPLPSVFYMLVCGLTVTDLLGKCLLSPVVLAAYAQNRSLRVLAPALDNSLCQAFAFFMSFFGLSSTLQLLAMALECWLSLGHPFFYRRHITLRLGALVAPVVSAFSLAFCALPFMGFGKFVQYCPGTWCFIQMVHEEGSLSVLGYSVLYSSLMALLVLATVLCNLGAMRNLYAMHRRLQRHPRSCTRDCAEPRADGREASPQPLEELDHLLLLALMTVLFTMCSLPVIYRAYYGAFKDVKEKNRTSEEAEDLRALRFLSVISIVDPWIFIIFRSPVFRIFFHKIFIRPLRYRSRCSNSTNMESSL
Method: 1) Preparation of Platelet and a Method of cAMP Assay
30 ml of peripheral blood was collected from a healthy volunteer using a syringe containing one ninth amount of 3.8% sodium citrate for diagnosis. After being centrifuged at 180 g for 10 minutes at room temperature, a supernatant was collected and used as Platelet Rich Plasma (PRP). The resulting PRP was washed with wash buffer and centrifuged three times (Washed Platelet: WP) and platelets were counted by a microcell counter. WP was added to a plate in amount of 1.5×10^8/assay and the plate was treated, with 3-isobutyl-1-methylxanthin (IBMX; 0.5 mM) for 5 minutes. A reaction was initiated by adding 100 nM of PGD2 5 min after an addition of a test compound. The reaction was terminated with an addition of 1N HCl after 2 minutes and the cells were destructed using 12% triton X-100. An amount of cAMP in the supernatant was assayed by Homogeneous […] (HTRF)

DP receptor [2] = biological target: T1, DP receptor; test: Receptor binding assay, [3H]-PGD2, platelet membrane; settings: [3H]-PGD2, human platelet membrane, on ice 2 hours
Method: 2) Receptor Binding Assay A prepared WP was homogenated and a membrane fraction was collected with high-speed centrifugation. A compound of the present invention or a reference compound A(No. IC-73 in WO 2003/097598) was added to the plate and [^3H]-PGD2 was also added. A platelet membrane, a protein concentration is 2 mg/mL, was added and mixed in the plate, and placed on ice for 2 hours. The reaction solution was transferred to a low protein-adsorptive filter and washed with a wash solution eight times using a cell harvester. After the final washing, water was removed sufficiently, and micoscinti was added. DP inhibitory activity was investigated by measuring [^3H] by using Micro Beta.

Brown Norway (BN) Rats = test: Test using OVA asthma model of rat; type: in vivo; settings: 10 mg/kg p.o. once a day for three days, vs control group; for inhibition rate (%) increased hyperresponsive airway: AUC of acetylcholine response curve; for inhibition rate (%) mucus-secretion: mucin in airway lavage fluid; for inhibition rate (%) infiltration of inflammatory cells: total cell number in bronchoalveolar washings
Method: Brown Norway (BN) Rats were sensitized by i.p. administration of 0.1 mg/mL of ovalbumin (OVA) and 1 mg of aluminum hydroxide gel. A solution of 1% OVA was aerosolized by ultrasonic nebulizer (NE-U17) and the rats were subjected to inhalation exposure of the aerosol for 30 minutes in an exposing chamber 12, 19, 26 and 33 days after the sensitization. One hour before the 4th exposure of the antigen, compounds of the present invention were administered in a dose of 10 mg/kg p.o. once a day for three days consecutively. In a control group, 0.5% of methyl cellulose was administered in place of the compound of the present invention.
Under pentobarbital anesthesia (80 mg/kg, i.p.), acetylcholine (3.9, 7.8, 15.6, 31.3, 62.5, 125, 250 and 500 μg/kg) was injected to jugular vein of the rats successively from a lower dose at intervals of 5 minutes three days after the fourth exposure to the antigen, and immediate contractile reaction of airways (an increase of insufflation pressure) was measured by a modified method of Konnzett & Rössler. Inhibition rate of increased hyperresponsive airway against the control group was calculated based on area under curve (AUC) obtained from concentration-response curve of acetylcholine.
After the measurement of increased hyperresponsive airway was; completed, bronchoalveoli of the rats were washed with 5 mL of saline three times. Total cell number in the washings was counted by a hemacytometer under light microscope, and inhibition rates of infiltration of inflammatory cells against the control group were calculated. Further, muchin in the airway lavage fluid was measured by ELIZA method using jacalin, a muchin-binding lectin, and the inhibition rates of mucus-secretion against the control group were calculated.

| SMILES | IC50 (DP receptor [1]) [nM] | Ki (DP receptor [2]) [nM] | further results |
| --- | --- | --- | --- |
| CC(C)Oc1ccc(S(=O)(=O)N2CCC(c3cn(CC(=O)O)c4cc(-c5cccs5)ccc34)C2)cc1 (stereo not drawn) [Compound I-66] | 1.9 |  |  |
| CC(C)Oc1ccc(S(=O)(=O)N2CCC(c3cn(CC(=O)O)c4c(Cl)cccc34)C2)cc1 (stereo not drawn) [Compound I-19] | 1.3 | 4.2 |  |
| CC(C)Oc1ccc(S(=O)(=O)N2CCC(c3cn(CC(=O)O)c4cc(Br)ccc34)C2)cc1F (stereo not drawn) [Compound I-86] | 1.3 |  |  |
| CC(C)Oc1ccc(S(=O)(=O)N2CCC(c3cn(CC(=O)O)c4cc(-c5nccs5)ccc34)C2)cc1 (stereo not drawn) [Compound I-93] | 0.5 | 0.24 |  |
| CC(C)Oc1ccc(S(=O)(=O)N2CC[C@@H](c3cn(CC(=O)O)c4cc(-c5ccco5)ccc34)C2)cc1 [Compound I-101] | 0.27 | 0.21 |  |
| CC(C)Oc1ccc(S(=O)(=O)N2CC[C@@H](c3cn(CC(=O)O)c4cc(-c5ncco5)ccc34)C2)cc1 [Compound I-103] | 0.14 | 20 | inhibition rate (%) increased hyperresponsive airway (Brown Norway (BN) Rats): 71%; inhibition rate (%) mucus-secretion (Brown Norway (BN) Rats): 52%; inhibition rate (%) infiltration of inflammatory cells (Brown Norway (BN) Rats): 58% |
| CC(C)Oc1ccc(S(=O)(=O)N2CCC(c3cn(CC(=O)O)c4cc(C#N)ccc34)CC2)cc1 [Compound I-98] | 0.97 |  |  |
| COc1ccc(-c2ccc3c(C4CCN(S(=O)(=O)c5ccc(OC(C)C)cc5)C4)cn(CC(=O)O)c3c2)cc1 (stereo not drawn) [Compound I-74] | 1.9 |  |  |
| CC(C)Sc1ccc(S(=O)(=O)N2CCC(c3cn(CC(=O)O)c4ccc(Cl)cc34)C2)cc1 (stereo not drawn) [Compound I-59] | 1.1 |  |  |
| CC(C)Oc1ccc(S(=O)(=O)N2CCC(c3cn(CC(=O)O)c4cc(Br)ccc34)C2)cc1 (stereo not drawn) [Compound I-60] | 0.73 | 3.5 |  |
| CC(C)Oc1ccc(S(=O)(=O)N2CCC(c3cn(CC(=O)O)c4cc(Cl)ccc34)C2)cc1 (stereo not drawn) [Compound I-14] | 0.98 | 2.1 | inhibition rate (%) increased hyperresponsive airway (Brown Norway (BN) Rats): 31%; inhibition rate (%) mucus-secretion (Brown Norway (BN) Rats): 55%; inhibition rate (%) infiltration of inflammatory cells (Brown Norway (BN) Rats): 57% |
| CC(C)Oc1ccc(S(=O)(=O)N2CC[C@H](c3cn(CC(=O)O)c4ccc(Cl)cc34)C2)cc1 (as salt: TFA) [Compound I-62] |  |  | melting point: 188 to 189 °C |
| CC(C)Oc1ccc(S(=O)(=O)N2CCC(c3cn(CC(=O)O)c4cc(-c5ncco5)ccc34)CC2)cc1 [Compound I-104] | 1.2 | 1.3 |  |
| CC(C)Oc1ccc(S(=O)(=O)N2CCC(c3cn(CC(=O)O)c4cc(-c5ccc6c(c5)OCO6)ccc34)C2)cc1 (stereo not drawn) [Compound I-80] | 1.4 |  |  |
| CC(C)Oc1ccc(S(=O)(=O)N2CCC(c3cn(CC(=O)O)c4cc(-c5cccc(C#N)c5)ccc34)C2)cc1 (stereo not drawn) [Compound I-73] | 2 |  |  |
| CC(C)Oc1ccc(S(=O)(=O)N2CCC(c3cn(CC(=O)O)c4cc(F)ccc34)C2)cc1 (stereo not drawn) [Compound I-34] | 2.3 | 3.4 |  |
| CC(C)Oc1ccc(S(=O)(=O)N2CCC(c3cn(CC(=O)O)c4cc(N5CCCC5=O)ccc34)C2)cc1 (stereo not drawn) [Compound I-107] | 2.3 |  |  |
| CC(C)Oc1ccc(S(=O)(=O)N2CCC(c3cn(CC(=O)O)c4ccc(Cl)cc34)C2)cc1 (stereo not drawn) [Compound I-10] | 1 | 2.5 |  |
| CC(C)Oc1ccc(S(=O)(=O)N2CCC(c3cn(CC(=O)O)c4cc(-c5nncs5)ccc34)CC2)cc1 [Compound I-102] | 0.56 |  |  |

| SMILES | IC50 (DP receptor [1]) [nM] | Ki (DP receptor [2]) [nM] | further results |
| --- | --- | --- | --- |
| CC(C)Oc1ccc(S(=O)(=O)N2CCC(c3cn(CC(=O)O)c4cc(-c5nccs5)ccc34)CC2)cc1 [Compound I-100] | 1.9 |  |  |
| CC(C)Oc1ccc(S(=O)(=O)N2CCC(c3cn(CC(=O)O)c4cc(-c5ccoc5)ccc34)C2)cc1 (stereo not drawn) [Compound I-78] | 1.2 |  |  |
| CC(C)Oc1ccc(S(=O)(=O)N2CCC(c3cn(CC(=O)O)c4cc(-c5ccccn5)ccc34)CC2)cc1 [Compound I-99] | 1.9 |  |  |
| CC(C)Oc1ccc(S(=O)(=O)N2CCC(c3cn(CC(=O)O)c4ccc(F)cc34)C2)cc1 (stereo not drawn) [Compound I-9] | 2.3 | 4.5 |  |
| CC(C)Oc1ccc(S(=O)(=O)N2CCC(c3cn(CC(=O)O)c4ccc(Cl)cc34)CC2)cc1 [Compound I-3] | 1.3 | 1.3 |  |
| CC(C)Oc1ccc(S(=O)(=O)N2CC[C@@H](c3cn(CC(=O)O)c4ccc(Cl)cc34)C2)cc1 (as salt: TFA) [Compound I-65] |  |  | melting point: 167 °C |
| CC(C)Oc1ccc(S(=O)(=O)N2CCC(c3cn(CC(=O)O)c4c(Cl)cc(Cl)cc34)C2)cc1 (stereo not drawn) [Compound I-45] | 1.5 | 19 |  |
| CC(C)Oc1ccc(S(=O)(=O)N2CCC(c3cn(CC(=O)O)c4cc(-c5ccc(C#N)cc5)ccc34)C2)cc1 (stereo not drawn) [Compound I-72] | 2.2 |  |  |
| CC(C)Oc1ccc(S(=O)(=O)N2CCC(c3cn(CC(=O)O)c4ccc(F)cc34)CC2)cc1 [Compound I-23] | 1.9 | 2.2 |  |
| CC(C)Oc1ccc(S(=O)(=O)N2CCC(c3cn(CC(=O)O)c4cc(-c5nnco5)ccc34)C2)cc1 (stereo not drawn) [Compound I-88] | 1.2 | 2.5 |  |
| COc1cccc(-c2ccc3c(C4CCN(S(=O)(=O)c5ccc(OC(C)C)cc5)C4)cn(CC(=O)O)c3c2)c1 (stereo not drawn) [Compound I-81] | 0.86 |  |  |
| CC(C)Oc1ccc(S(=O)(=O)N2CCC(c3cn(CC(=O)O)c4cc(-c5ccncc5)ccc34)C2)cc1.Cl (stereo not drawn) [Compound I-75] | 1.7 | 0.66 | inhibition rate (%) increased hyperresponsive airway (Brown Norway (BN) Rats): 58%; inhibition rate (%) mucus-secretion (Brown Norway (BN) Rats): 77%; inhibition rate (%) infiltration of inflammatory cells (Brown Norway (BN) Rats): 71% |
| CC(C)Oc1ccc(S(=O)(=O)N2CCC(c3cn(CC(=O)O)c4cc(N5CCOCC5)ccc34)C2)cc1.Cl (stereo not drawn) [Compound I-82] |  |  | inhibition rate (%) increased hyperresponsive airway (Brown Norway (BN) Rats): 59%; inhibition rate (%) mucus-secretion (Brown Norway (BN) Rats): 47%; inhibition rate (%) infiltration of inflammatory cells (Brown Norway (BN) Rats): 35% |
| CC(C)Oc1ccc(S(=O)(=O)N2CC[C@@H](c3cn(CC(=O)O)c4cc(-c5nccs5)ccc34)C2)cc1 [Compound I-96] | 0.23 | 0.21 |  |
| CC(C)Oc1ccc(S(=O)(=O)N2CC[C@@H](c3cn(CC(=O)O)c4cc(Cl)ccc34)C2)cc1 [Compound I-79] | 0.19 | 0.91 |  |
| CCOc1ccc(S(=O)(=O)N2CCC(c3cn(CC(=O)O)c4ccc(Cl)cc34)C2)cc1 (stereo not drawn) [Compound I-38] | 2 | 4.7 |  |
| CC(C)Oc1ccc(S(=O)(=O)N2CCC(c3cn(CC(=O)O)c4cc(-c5ccsc5)ccc34)C2)cc1 (stereo not drawn) [Compound I-67] | 1.4 |  |  |
| CC(C)Oc1ccc(S(=O)(=O)N2CC[C@@H](c3cn(CC(=O)O)c4ccc(Cl)cc34)C2)cc1 [Compound I-65] | 0.34 | 2.3 | inhibition rate (%) increased hyperresponsive airway (Brown Norway (BN) Rats): 62%; inhibition rate (%) mucus-secretion (Brown Norway (BN) Rats): 40%; inhibition rate (%) infiltration of inflammatory cells (Brown Norway (BN) Rats): 61% |
| CC(C)Oc1ccc(S(=O)(=O)N2CCC(c3cn(CC(=O)O)c4cc(-c5ccco5)ccc34)C2)cc1 (stereo not drawn) [Compound I-77] | 0.62 | 0.37 | inhibition rate (%) increased hyperresponsive airway (Brown Norway (BN) Rats): 110%; inhibition rate (%) mucus-secretion (Brown Norway (BN) Rats): 72%; inhibition rate (%) infiltration of inflammatory cells (Brown Norway (BN) Rats): 28% |
